# Measurements taken from ChEMBL document CHEMBL4354883, “Design, Synthesis, and Biological Evaluation of HSP90 Inhibitor-SN38 Conjugates for Targeted Drug Accumulation” (J Med Chem, 2020).
# The source made the active and inactive calls. The rule behind the calls is not given here.
# Legend:
# [1] = Clearance in BALB/c mouse at 50 mg/kg, iv after 5 to 24 hrs by LC-MS/MS analysis; assay type: ADME, organism-based; details: in vivo
# [2] = target: Heat shock protein HSP 90-alpha (Homo sapiens, UniProt P07900); test: biochemical
# Description: Inhibition of recombinant human full length HSP90 alpha expressed in Escherichia coli cells after 1 hr by fluorescence polarization assay
# [3] = Apparent volume of distribution at steady state in BALB/c mouse at 50 mg/kg, iv after 5 to 24 hrs by LC-MS/MS analysis; assay type: ADME, organism-based; details: in vivo, read-out: Vdss(app)
# [4] = Half life of compound in PBS buffer at pH 6.0 at 50 uM by HPLC analysis; assay type: physicochemical
# HCT-116 [5] = test: Downregulation of TOP1 expression in human HCT116 cells after 24 hrs by Western blot analysis; assay type: functional, cell-based
# [6] = Half life in mouse plasma at 25 uM by HPLC analysis; assay type: ADME, cell-free
# [7] = Intrinsic clearance in human liver microsomes at 1 uM preincubated for 5 mins followed by NADPH addition and measured up to 360 mins by LC-MS/MS analysis; assay type: ADME, Microsome; details: 6 h
# A549 [8] = test: Ratio of prodrug release in human A549 cells assessed as increase in 7-ethyl-10-hydroxycamptothecin level at 5 uM after 12 hrs by LC-MS/MS analysis to prodrug release in human A549 cells assessed as increase in 7-ethyl-10-hydroxycamptothecin level at 5 uM after 1 hr by LC-MS/MS analysis; assay type: ADME, cell-based; details: a549, 5 µM
# [9] = Drug uptake in human A549 cells assessed as maximum emission peaks at 430 nm at 5 uM by fluorescence emission spectral analysis; assay type: ADME, cell-based; details: a549, 5 µM
# HCT-116 [10] = test: Induction of cell cycle arrest in human HCT116 cells assessed as accumulation at G2/M phase after 24 hrs by RNase A/PI-staining based flow cytometric analysis; assay type: functional
# A549 [11] = test: Downregulation of TOP1 expression in human A549 cells after 24 hrs by Western blot analysis; assay type: functional, cell-based
# CAPAN-1 [12] = test: Antiproliferative activity against human Capan1 cells assessed as reduction in cell viability after 72 hrs by SRB assay; assay type: functional, cell-based; details: CAPAN-1, 72 h
# L02 = test: Cytotoxicity agains human HL7702 cells assessed as reduction in cell viability after 72 hrs by SRB assay; assay type: cell-based; details: L02, 72 h
# [13] = Drug uptake in human A549 cells assessed as blue shift in absorption spectrum at 5 uM by UV-visible absorption spectral analysis; assay type: ADME, cell-based; details: a549, 5 µM
# [14] = Drug uptake in human A549 cells assessed as blue fluorescence at 5 uM after 12 hrs by confocal laser scanning microscopic analysis; assay type: ADME, cell-based; details: a549, 12 h
# [15] = Half life in human plasma at 25 uM by HPLC analysis; assay type: ADME, cell-free
# Heat shock protein HSP90 [16] = target: T1, Heat shock protein HSP90 (Homo sapiens, UniProt P07900+P08238); test: Inhibition of HSP90 in human HCT116 cells assessed as downregulation of AKT protein expression after 24 hrs by Western blot analysis; assay type: cell-based
# MIA PaCa-2 = test: Antiproliferative activity against human MIAPaCa2 cells assessed as reduction in cell viability after 72 hrs by SRB assay; assay type: functional, cell-based; details: MIA PaCa-2, 72 h
# [17] = Drug uptake in human A549 cells assessed as endocytosis-mediated total cellular drug internalization at 5 uM after 12 hrs by LC-MS/MS analysis relative to irinotecan; assay type: ADME, cell-based; details: a549, 12 h
# [18] = AUC(0 to infinity) in BALB/c mouse at 50 mg/kg, iv after 5 to 24 hrs by LC-MS/MS analysis; assay type: ADME, organism-based; set-up: dose 50 mg/kg, route intravenous, time infinity; details: in vivo
# CAPAN-1 [19] = test: Induction of cell cycle arrest in human Capan1 cells assessed as accumulation at G2/M phase after 24 hrs by RNase A/PI-staining based flow cytometric analysis; assay type: functional
# HCT-116 [20] = test: Antiproliferative activity against human HCT116 cells assessed as reduction in cell viability after 72 hrs by SRB assay; assay type: functional, cell-based; details: HCT-116, 72 h
# [21] = Drug uptake in human A549 cells assessed as endocytosis-mediated total cellular drug internalization at 5 uM after 12 hrs by LC-MS/MS analysis relative to SN38; assay type: ADME, cell-based; details: a549, 12 h
# [22] = target: T2, DNA topoisomerase 1 (Homo sapiens) (UniProt P11387); test: Inhibition of topoisomerase 1 in human HCT116 cells assessed as increase in phosphorylated KAP1 expression after 24 hrs by Western blot analysis; assay type: cell-based
# T2 sequence (whole entry): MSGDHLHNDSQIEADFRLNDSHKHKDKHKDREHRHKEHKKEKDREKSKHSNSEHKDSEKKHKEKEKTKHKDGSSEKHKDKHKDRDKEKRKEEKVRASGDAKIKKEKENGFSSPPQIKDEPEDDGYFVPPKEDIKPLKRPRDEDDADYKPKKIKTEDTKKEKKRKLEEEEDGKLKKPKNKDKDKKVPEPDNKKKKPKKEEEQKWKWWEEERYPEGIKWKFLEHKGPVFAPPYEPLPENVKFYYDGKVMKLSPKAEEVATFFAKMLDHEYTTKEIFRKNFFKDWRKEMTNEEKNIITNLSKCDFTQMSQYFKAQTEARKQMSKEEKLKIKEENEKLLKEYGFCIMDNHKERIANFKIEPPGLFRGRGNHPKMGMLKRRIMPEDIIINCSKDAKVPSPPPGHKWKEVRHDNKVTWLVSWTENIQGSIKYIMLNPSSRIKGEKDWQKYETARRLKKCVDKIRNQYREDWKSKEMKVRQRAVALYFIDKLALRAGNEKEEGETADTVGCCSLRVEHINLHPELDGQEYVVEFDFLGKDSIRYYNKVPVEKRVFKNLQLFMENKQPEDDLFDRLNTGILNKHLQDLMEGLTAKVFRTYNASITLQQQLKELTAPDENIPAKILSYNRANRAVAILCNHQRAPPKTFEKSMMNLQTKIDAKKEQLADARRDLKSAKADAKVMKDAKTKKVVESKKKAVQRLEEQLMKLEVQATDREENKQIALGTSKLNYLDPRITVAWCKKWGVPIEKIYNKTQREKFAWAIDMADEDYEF
# [23] = Half life of compound in PBS buffer at pH 7.4 at 50 uM by HPLC analysis; assay type: physicochemical
# [24] = Toxicity in mouse xenografted with human HCT116 cells assessed as body weight loss at 50 mg/kg, iv for 5 consecutive days per week and measured every 3 to 4 days up to 14 days relative to control; assay type: organism-based; details: in vivo
# A549 [25] = test: Induction of cell cycle arrest in human A549 cells assessed as accumulation at G2/M phase after 24 hrs by RNase A/PI-staining based flow cytometric analysis; assay type: functional
# [26] = Half life in human liver microsomes at 1 uM preincubated for 5 mins followed by NADPH addition and measured up to 360 mins by LC-MS/MS analysis; assay type: ADME, Microsome
# [27] = Metabolic stability in human liver microsomes assessed as compound remaining at 1 uM preincubated for 5 mins followed by NADPH addition and measured after 60 mins by LC-MS/MS analysis; assay type: ADME, Microsome; details: read-out: Stability
# A549 [28] = test: Antiproliferative activity against human A549 cells assessed as reduction in cell viability after 72 hrs by SRB assay; assay type: functional, cell-based; details: A549, 72 h
# Heat shock protein HSP90 [29] = target: T1, Heat shock protein HSP90; test: Inhibition of HSP90 in human A549 cells assessed as upregulation of HSP70 expression at 0.04 to 5 uM after 24 hrs by Western blot analysis; assay type: cell-based
# Heat shock protein HSP90 [30] = target: T1, Heat shock protein HSP90; test: Drug uptake in human A549 cells assessed as eHSP90-mediated drug internalization by measuring blue fluorescence in PBS solution at 5 uM after 1 to 12 hrs by confocal laser scanning microscopic analysis; assay type: ADME, cell-based; details: a549, 5 µM, TDE = time-dependent effect
# Heat shock protein HSP90 [31] = target: T1, Heat shock protein HSP90; test: Inhibition of HSP90 in human HCT116 cells assessed as upregulation of HSP70 expression at 0.04 to 5 uM after 24 hrs by Western blot analysis; assay type: cell-based
# Heat shock protein HSP90 [32] = target: T1, Heat shock protein HSP90; test: Inhibition of HSP90 in human A549 cells assessed as downregulation of AKT protein expression after 24 hrs by Western blot analysis; assay type: cell-based
# [33] = Half life in BALB/c mouse at 50 mg/kg, iv after 5 to 24 hrs by LC-MS/MS analysis; assay type: ADME, organism-based; details: in vivo
# [34] = target: T2, DNA topoisomerase 1 (Homo sapiens); test: Inhibition of topoisomerase 1 in human A549 cells assessed as increase in phosphorylated KAP1 expression after 24 hrs by Western blot analysis; assay type: cell-based
# [35] = Drug uptake in human A549 cells assessed as eHSP90-mediated total cellular drug internalization at 5 uM after 12 hrs by LC-MS/MS analysis; assay type: ADME, cell-based; details: a549, 12 h
smiles,measurement,setting,value
CCc1c2c(nc3ccc(O)cc13)-c1cc3c(c(=O)n1C2)COC(=O)[C@@]3(CC)OC(=O)CCNC(=O)c1noc(-c2cc(C(C)C)c(O)cc2O)c1-c1ccc(CN2CCOCC2)cc1,clearance,[1],5.51 mL/min/kg
same,IC50,[2],70 nM
same,Vd,[3],0.1 L/kg
same,half-life at 50 µM,[4],> 24 h
same,inhibition,HCT-116 [5],Dose-dependent effect
same,half-life at 25 µM,[6],17 h
same,CLH,[7],5.3 mL/min/kg
same,Ratio,A549 [8],4.3
same,Drug uptake,[9],Active
same,Activity,HCT-116 [10],Dose-dependent effect
same,TOP1 downregulation,A549 [11],Dose-dependent effect
same,IC50,CAPAN-1 [12],206 nM
same,IC50,L02,7890 nM
same,Drug uptake,[13],Active
same,Drug uptake,[14],Active
same,half-life at 25 µM,[15],> 24 h
same,inhibition,Heat shock protein HSP90 [16],Dose-dependent effect
same,IC50,MIA PaCa-2,205 nM
same,fold change (FC),[17],2.8 to 3.8
same,AUC(0-inf),[18],151 µg·h/mL
same,Activity,CAPAN-1 [19],Dose-dependent effect
same,IC50,HCT-116 [20],83 nM
same,fold change (FC),[21],1.6 to 1.9
same,inhibition,[22],Dose-dependent effect
same,half-life at 50 µM,[23],14 h
same,Activity,[24],< 20%
same,Activity,A549 [25],Dose-dependent effect
same,half-life at 1 µM,[26],2.4 h
same,"remaining at 1 h, 1 µM",[27],75%
same,IC50,A549 [28],324 nM
same,inhibition,Heat shock protein HSP90 [29],Active
same,Drug uptake,Heat shock protein HSP90 [30],Tde
same,inhibition,Heat shock protein HSP90 [31],Active
same,inhibition,Heat shock protein HSP90 [32],Dose-dependent effect
same,half-life,[33],1.51 h
same,inhibition,[34],Dose-dependent effect
same,Drug uptake,[35],Active
